According to ChEMBL document CHEMBL3286289, “Synthesis and structure-activity relationship of non-phosphorus-based fructose-1,6-bisphosphatase inhibitors: 2,5-Diphenyl-1,3,4-oxadiazoles” (Eur J Med Chem, 2014):
Each block holds one molecule with its values, some of them ahead of it. The source made the active and inactive calls. The calls are words filed in the database; no cut-off is given here.

Assays:
Hepatocyte [1] = assay: Inhibition of gluconeogenesis in Sprague-Dawley rat hepatocytes assessed as decrease in glucose output at 2 mM after 4 hrs by colorimetric assay relative to control; assay type: functional; details: values are per cent of control
[2] = Inhibition of human recombinant FBPase-mediated fructose-6-phosphate formation by coupled spectrophotometric assay
Hepatocyte [3] = assay: Inhibition of gluconeogenesis in Sprague-Dawley rat hepatocytes assessed as glucose output at 80 to 160 uM after 4 hrs by colorimetric assay; assay type: functional, cell-based
Hepatocyte [4] = assay: Inhibition of gluconeogenesis in Sprague-Dawley rat hepatocytes assessed as decrease in glucose output at 20 uM after 4 hrs by colorimetric assay relative to control; assay type: functional; details: values are per cent of control
Hepatocyte [5] = assay: Inhibition of gluconeogenesis in Sprague-Dawley rat hepatocytes assessed as decrease in glucose output at 40 uM after 4 hrs by colorimetric assay relative to control; assay type: functional; details: values are per cent of control
Hepatocyte [6] = assay: Inhibition of gluconeogenesis in Sprague-Dawley rat hepatocytes assessed as decrease in glucose output at 10 uM after 4 hrs by colorimetric assay relative to control; assay type: functional; details: values are per cent of control

SMILES: CN(C)C(=N)NC(=N)N [METFORMIN]
response, % of control at 2000 µM (Hepatocyte [1]): 75%

IC50 [2]: 1.3 µM
SMILES: Nc1ncnc2c1ncn2[C@@H]1O[C@H](COP(=O)(O)O)[C@@H](O)[C@H]1O [ADENOSINE PHOSPHATE]

IC50 [2]: 2.54 µM
SMILES: Cc1ccc(-c2nnc(-c3cccc(NC(=O)CCCCCN4CCOCC4)c3)o2)cc1
inhibition (Hepatocyte [3]): inactive
response, % of control at 20 µM (Hepatocyte [4]): 83.6%
response, % of control at 40 µM (Hepatocyte [5]): 85.2%
response, % of control at 10 µM (Hepatocyte [6]): 83.3%

IC50 [2]: 15.5 µM
SMILES: COc1ccc(CC(=O)Nc2cccc(-c3nnc(-c4cccc(Cl)c4)o3)c2)cc1OC

IC50 [2]: 4.51 µM
SMILES: COc1ccc(CC(=O)Nc2cccc(-c3nnc(-c4ccc(C)cc4)o3)c2)cc1OC
response, % of control at 20 µM (Hepatocyte [4]): 93.5%
response, % of control at 40 µM (Hepatocyte [5]): 103%
response, % of control at 10 µM (Hepatocyte [6]): 96.7%

IC50 [2]: 4.96 µM
SMILES: Cc1ccc(-c2nnc(-c3cccc(NC(=O)CCCN4CCOCC4)c3)o2)cc1

IC50 [2]: 5.01 µM
SMILES: Cc1ccc(-c2nnc(-c3cccc(NC(=O)CCCCN4CCOCC4)c3)o2)cc1
